Measurements published in PMC3829776 (Nature chemical biology, 2013).

Molecular target: T1, Adipose triglyceride lipase (ATGL) (Mus musculus, UniProt Q8BJ56)
T1 sequence (Q8BJ56 1-486): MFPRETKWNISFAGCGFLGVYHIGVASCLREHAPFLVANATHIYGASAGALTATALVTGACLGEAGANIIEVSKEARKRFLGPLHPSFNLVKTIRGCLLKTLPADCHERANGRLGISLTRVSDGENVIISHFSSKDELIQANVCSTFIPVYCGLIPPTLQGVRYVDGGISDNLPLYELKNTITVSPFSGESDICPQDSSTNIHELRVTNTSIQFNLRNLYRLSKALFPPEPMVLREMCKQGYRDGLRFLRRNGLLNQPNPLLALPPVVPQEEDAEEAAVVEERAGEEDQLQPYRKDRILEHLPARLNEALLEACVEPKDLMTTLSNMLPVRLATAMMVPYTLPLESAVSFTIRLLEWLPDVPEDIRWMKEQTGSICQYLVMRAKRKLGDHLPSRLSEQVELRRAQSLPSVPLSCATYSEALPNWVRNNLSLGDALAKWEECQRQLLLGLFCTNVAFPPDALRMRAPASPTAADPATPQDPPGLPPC
T1 sequence (Q9DBL9 1-351 partner): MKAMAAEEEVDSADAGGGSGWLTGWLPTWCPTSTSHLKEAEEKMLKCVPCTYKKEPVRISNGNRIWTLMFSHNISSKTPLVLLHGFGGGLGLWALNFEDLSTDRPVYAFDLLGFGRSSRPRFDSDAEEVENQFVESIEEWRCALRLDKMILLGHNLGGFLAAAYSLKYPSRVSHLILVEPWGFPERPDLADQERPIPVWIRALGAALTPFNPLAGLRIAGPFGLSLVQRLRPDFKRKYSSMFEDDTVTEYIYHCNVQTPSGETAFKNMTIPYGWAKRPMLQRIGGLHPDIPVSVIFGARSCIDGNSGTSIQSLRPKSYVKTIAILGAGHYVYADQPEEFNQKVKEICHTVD
Assay type: biochemical

Ki: 355 ± 48 nM
SMILES: CN(C)C(=O)Nc1cccc(-c2ccc(N(C)C)cc2)c1 [compound 4, Atglistatin]
